A short description of assay [1]: luciferase reporter signal suppression in cells – H4 neuroglioma cells, luminescence, dose response (AID 1990). The assay is classed as functional, cell-based. (Reporter assays use an easily measured gene product as a stand-in for the process of interest.)
Assay [2] concerns Streptococcus sp. 'group A'. Description: Streptococcus pyogenes SK(-)GAS viability under kanamycin – luminescence, BacTiterGlo, confirmation, counter-screen for streptokinase expression inhibitor project, dose response (AID 1900). The assay is classed as functional, organism-based. (Counterscreens check selectivity or assay interference.)
Assay [3] is described as follows: Luminescence Cell-Based Dose Response HTS to Identify Inhibitors of 5'UTR Stem-Loop Driven Prion Protein mRNA Translation in H4 Neuroglioblastoma Cells. [Related pubchem assays: 1827 (Project Summary), 1813 (Primary HTS)]. The format is functional.
The nature of assay [4]: alpha-synuclein stem-loop luciferase translation blockers – H4 neuroglioma cells, luminescence, confirmation (AID 1988). The format is functional, cell-based.
Another assay has as its system Streptococcus. Description: GAS UMAA2166 growth inhibition – luminescence, BacTiterGlo, counter-screen for streptokinase expression inhibitor project, dose response (AID 1915).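 Further: potency for reduction of bacterial viability or growth.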 The format is functional, organism-based.
In the next assay the test system is HEK293. Description: EBV LMP1 TES2 canonical NF-kB signalling blockers – cell-based, HEK293, luciferase, cherry-pick, dose response (AID 588343). The format is functional. The note with it: Homo sapiens.
The test system of another assay is INS1. Description: INS-1E survival protection against cytokine death – cell-based, luminescence, retest, dose response (AID 449756).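 Further: cell death triggered by IL-1 beta plus TNF-alpha plus IFN-gamma mixture; protective hits raise ATP signal compared with cytokine alone wells.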 The conditions noted are these: Rattus norvegicus. The format is functional.
Assay [5] in a line: viability of uninfected HEp-2 cells – cell-based, HTS, cytotoxicity control for RSV inhibitor project, dose response (AID 2410). The conditions noted are these: human respiratory syncytial virus. The format is functional.
The subject of assay [6] is BJ. Description: BJ-TERT fibroblast viability loss – cell-based, RAS-independent, luminescence, dose response (AID 1933). The format is functional. The note with it: Homo sapiens.
The subject of assay [7] is BJ. Description: cells. The format is functional, cell-based. The conditions noted are these: Homo sapiens.
Assay [8] has as its system BJ. Description: BJ-TERT-LT-ST fibroblast viability loss – cell-based, RAS-independent, luminescence, dose response (AID 1935).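 Further: BJ fibroblasts immortalized with TERT plus LT and ST oncogenes.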 The assay is classed as functional. The conditions noted are these: Homo sapiens.
Assay [9] in a line: DRD fibroblast viability loss – cell-based, non-viral oncogenic, luminescence, dose response (AID 1934). The format is functional. The conditions noted are these: Homo sapiens.
The subject of assay [10] is BJ. Description: growth inhibition of engineered Ras-driven BJ cells – cell-based, alamar blue fluorescence, cherrypicked samples, dose response (AID 2631).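 Further: confirmatory dose-response assay in RAS-dependent BJ fibroblasts engineered with TERT, LT and ST, with cytotoxicity read by fluorescence.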 The conditions noted are these: Homo sapiens. The assay is classed as functional. (In general: Resazurin is reduced to fluorescent resorufin, in cell work by metabolically active cells.)
For a further assay, the target named is Beta-galactosidase (Escherichia coli, UniProt Q8VNN2). The experiment in a line: PubChem AID 485352. The format is functional.
Beta-galactosidase, sequence (Q8VNN2 whole entry): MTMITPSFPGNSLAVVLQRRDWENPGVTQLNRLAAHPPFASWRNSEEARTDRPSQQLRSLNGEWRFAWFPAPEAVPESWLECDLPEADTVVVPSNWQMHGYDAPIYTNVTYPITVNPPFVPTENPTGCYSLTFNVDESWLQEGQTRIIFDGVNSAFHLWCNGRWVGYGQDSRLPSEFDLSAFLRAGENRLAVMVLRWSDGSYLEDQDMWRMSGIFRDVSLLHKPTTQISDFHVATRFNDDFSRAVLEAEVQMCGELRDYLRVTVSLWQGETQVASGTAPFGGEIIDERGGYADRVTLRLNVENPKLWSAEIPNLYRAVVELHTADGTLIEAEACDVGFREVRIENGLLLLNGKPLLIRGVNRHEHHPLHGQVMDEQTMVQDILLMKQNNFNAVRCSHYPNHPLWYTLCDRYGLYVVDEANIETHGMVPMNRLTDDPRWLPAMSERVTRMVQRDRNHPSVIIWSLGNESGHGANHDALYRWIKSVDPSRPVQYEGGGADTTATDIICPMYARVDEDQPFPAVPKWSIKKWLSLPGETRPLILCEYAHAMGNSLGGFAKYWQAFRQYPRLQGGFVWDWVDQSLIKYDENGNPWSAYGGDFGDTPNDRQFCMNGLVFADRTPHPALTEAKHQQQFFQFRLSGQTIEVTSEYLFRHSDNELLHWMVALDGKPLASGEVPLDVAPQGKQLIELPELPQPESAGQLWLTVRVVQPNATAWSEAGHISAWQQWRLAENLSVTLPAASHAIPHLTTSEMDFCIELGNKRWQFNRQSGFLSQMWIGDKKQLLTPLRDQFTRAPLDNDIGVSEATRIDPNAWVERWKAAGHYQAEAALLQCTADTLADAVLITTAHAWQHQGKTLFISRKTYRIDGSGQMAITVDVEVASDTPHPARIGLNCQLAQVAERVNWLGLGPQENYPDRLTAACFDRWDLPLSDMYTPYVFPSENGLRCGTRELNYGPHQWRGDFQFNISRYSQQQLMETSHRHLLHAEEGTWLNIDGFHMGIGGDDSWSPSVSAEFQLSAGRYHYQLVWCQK
Assay [11] concerns the target T1, Type-1 angiotensin II receptor (Homo sapiens, UniProt P30556).
T1 sequence (P30556 whole entry): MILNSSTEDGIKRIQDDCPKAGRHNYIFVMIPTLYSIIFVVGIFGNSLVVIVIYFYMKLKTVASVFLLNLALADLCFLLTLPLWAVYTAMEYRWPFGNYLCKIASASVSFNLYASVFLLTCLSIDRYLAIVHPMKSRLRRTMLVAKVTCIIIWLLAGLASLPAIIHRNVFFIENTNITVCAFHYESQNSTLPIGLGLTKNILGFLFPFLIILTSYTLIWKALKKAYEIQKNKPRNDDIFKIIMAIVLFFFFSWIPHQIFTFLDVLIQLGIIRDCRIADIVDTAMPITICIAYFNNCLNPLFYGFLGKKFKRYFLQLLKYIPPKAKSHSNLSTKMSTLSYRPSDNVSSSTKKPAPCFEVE
Description: antagonism of angiotensin II type 1 receptor – cell-based, uHTS hits, selectivity assay for APJ receptor antagonist project, dose response (AID 463214).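 Further: antagonist potency against angiotensin II stimulated AT1 response.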 The format is functional.

The test system of another assay is Escherichia coli. Description: microbe, parasite or virus in culture.
Assay [12] addresses T2, Replicative DNA helicase DnaB (Mycobacterium tuberculosis, UniProt P9WMR3).
T2 sequence (P9WMR3 whole entry): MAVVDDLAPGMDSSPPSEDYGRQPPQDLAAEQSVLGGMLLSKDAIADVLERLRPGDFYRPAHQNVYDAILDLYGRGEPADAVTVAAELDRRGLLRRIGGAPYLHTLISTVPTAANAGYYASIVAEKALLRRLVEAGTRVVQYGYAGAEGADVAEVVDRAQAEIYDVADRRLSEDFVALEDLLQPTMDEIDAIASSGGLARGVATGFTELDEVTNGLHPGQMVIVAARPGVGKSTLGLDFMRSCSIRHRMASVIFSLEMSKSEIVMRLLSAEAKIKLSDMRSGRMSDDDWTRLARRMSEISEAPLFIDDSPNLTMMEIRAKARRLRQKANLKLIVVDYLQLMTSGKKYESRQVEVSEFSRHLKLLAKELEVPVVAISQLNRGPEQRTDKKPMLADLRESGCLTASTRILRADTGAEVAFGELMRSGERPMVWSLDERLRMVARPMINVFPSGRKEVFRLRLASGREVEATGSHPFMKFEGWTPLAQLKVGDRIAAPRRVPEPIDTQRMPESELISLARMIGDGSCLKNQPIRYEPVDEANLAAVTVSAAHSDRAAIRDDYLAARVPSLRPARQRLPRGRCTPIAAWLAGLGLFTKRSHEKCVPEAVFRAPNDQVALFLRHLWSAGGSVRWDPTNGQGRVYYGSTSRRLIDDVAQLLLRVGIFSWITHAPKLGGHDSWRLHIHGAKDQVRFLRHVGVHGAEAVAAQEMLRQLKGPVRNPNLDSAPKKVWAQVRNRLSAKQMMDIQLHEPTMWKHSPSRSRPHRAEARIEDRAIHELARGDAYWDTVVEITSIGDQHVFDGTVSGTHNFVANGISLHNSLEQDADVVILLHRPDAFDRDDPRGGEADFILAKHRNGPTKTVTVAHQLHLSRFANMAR
Description: DnaB intein splicing inhibitors, dose response, biochemical, cell-free fluorescence (AID 449749). The format is functional.

The next assay deals with T3, Protein RecA (Mycobacterium tuberculosis, UniProt P9WHJ3).
T3 sequence (P9WHJ3 whole entry): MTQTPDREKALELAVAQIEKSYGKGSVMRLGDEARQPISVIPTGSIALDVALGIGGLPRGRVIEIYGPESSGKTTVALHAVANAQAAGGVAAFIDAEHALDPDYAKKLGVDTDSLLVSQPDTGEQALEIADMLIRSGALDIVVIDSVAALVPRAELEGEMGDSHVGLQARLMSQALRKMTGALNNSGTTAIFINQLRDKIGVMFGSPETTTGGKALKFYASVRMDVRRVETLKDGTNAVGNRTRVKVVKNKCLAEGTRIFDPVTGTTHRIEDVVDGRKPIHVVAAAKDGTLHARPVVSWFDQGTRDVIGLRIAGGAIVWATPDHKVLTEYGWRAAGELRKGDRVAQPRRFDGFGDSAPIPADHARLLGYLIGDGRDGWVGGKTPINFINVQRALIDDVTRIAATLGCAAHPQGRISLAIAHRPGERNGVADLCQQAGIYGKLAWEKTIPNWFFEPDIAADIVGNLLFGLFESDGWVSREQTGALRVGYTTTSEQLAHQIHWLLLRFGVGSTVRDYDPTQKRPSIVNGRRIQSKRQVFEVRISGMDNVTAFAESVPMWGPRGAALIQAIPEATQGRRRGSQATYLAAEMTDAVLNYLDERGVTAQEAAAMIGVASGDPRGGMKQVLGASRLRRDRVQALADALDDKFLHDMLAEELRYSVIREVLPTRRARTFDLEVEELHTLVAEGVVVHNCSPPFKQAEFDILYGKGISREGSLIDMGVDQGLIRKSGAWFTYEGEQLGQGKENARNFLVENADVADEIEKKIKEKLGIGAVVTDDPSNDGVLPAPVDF
Description: Fluorescence Cell-Free Homogeneous Dose Retest to Identify Inhibitors of RecA-Intein Splicing Activity. [Related pubchem assays (depositor defined):AID2097, AID2223, AID489010, AID492950]. The assay is classed as functional.

In assay [13] the test system is Vero. Description: cells. The format is functional, cell-based. The note with it: Chlorocebus sabaeus.
Assay [14] has as its system Vero. Description: cells. The assay is classed as functional. The note with it: Chlorocebus sabaeus.
The target in a further assay is Paired box protein Pax-8 (Homo sapiens, UniProt Q06710). Description: PAX8 transcriptional activity inhibition in RMG-I – RMG-I cells, luciferase, cherry-pick, dose response (AID 687027).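 Further: luciferase reporter driven by Pax8 target thyroperoxidase promoter measured by SteadyGlo luminescence.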 The assay is classed as functional, cell-based.
Paired box protein Pax-8, sequence (Q06710 whole entry): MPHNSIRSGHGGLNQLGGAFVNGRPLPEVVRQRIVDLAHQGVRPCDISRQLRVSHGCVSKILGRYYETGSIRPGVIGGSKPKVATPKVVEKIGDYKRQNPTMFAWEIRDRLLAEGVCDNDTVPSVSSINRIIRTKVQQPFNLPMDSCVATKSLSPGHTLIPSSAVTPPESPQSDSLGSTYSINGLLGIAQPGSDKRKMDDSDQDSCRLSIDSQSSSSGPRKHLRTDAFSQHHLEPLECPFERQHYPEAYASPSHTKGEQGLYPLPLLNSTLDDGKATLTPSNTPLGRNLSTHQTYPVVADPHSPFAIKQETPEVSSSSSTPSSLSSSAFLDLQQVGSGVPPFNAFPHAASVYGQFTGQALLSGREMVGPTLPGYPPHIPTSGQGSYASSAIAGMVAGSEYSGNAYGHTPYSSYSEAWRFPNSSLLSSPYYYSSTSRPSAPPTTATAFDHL
Another assay has as its target Cytochrome P450 3A4 (Homo sapiens, UniProt P08684).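 Further: CYP3A4 tested as one member of a cytochrome P450 panel screen.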
A short description of assay [15]: viability of PTEN-deleted HCT116 cells – cell-based, HCT116 PTEN knockout, dose response (AID 1047).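 Further: HCT116 colon tumor cells with PTEN knocked out; cells exposed to compound for 60 hours before readout; potency for loss of cell viability measured by luminescence.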 The assay is classed as functional.
Assay [16] in a line: viability of HCT116 lacking mutant beta-catenin – cell-based, human colon tumor, dose response (AID 1045).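 Further: HCT116 colon tumor cells with beta catenin knocked out; cells exposed to compound for 60 hours.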 The assay is classed as functional.

The values that follow come from ChEMBL document CHEMBL1201862, “PubChem BioAssay data set” (2004).

In general, EC50 refers to the concentration giving half of the maximal effect. As a reminder, the AC50 is the concentration at which the activity in the assay is half-maximal. A word on the CC50: it is the concentration that lowers cell viability or growth by half. A word on the IC50: it is the point on the concentration scale where inhibition reaches its midpoint.

Active and inactive are the calls of the source.

Cytochrome P450 3A4, sequence (P08684 whole entry): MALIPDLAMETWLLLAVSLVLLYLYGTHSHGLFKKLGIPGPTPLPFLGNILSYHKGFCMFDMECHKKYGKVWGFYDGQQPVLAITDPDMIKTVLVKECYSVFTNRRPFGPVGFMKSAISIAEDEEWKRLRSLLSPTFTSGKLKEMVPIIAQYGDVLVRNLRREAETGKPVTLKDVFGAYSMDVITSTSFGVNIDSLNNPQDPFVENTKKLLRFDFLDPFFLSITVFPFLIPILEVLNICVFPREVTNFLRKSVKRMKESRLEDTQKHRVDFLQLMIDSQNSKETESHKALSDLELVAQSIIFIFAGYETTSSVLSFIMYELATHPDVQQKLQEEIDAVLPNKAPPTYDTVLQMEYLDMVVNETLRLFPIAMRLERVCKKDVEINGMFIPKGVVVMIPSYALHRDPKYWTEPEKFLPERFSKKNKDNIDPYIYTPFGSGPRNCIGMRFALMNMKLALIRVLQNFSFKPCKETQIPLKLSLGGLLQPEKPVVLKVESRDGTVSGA

For the compound `Cc1[nH]n(-c2ccc(Br)cc2)c(=O)c1/C=N/NC(=O)c1ccccc1`, the EC50 in [1] is 7.9 µM (active); in [2], 0.593 µM (active); in assay [3] it was 26.6 µM (active); in assay [4], 0.889 µM (active); in the assay with Streptococcus, 1.92 µM (active). Besides, the AC50 in the assay on HEK293 is 3.72 µM (active); in the assay on INS1, 0.898 µM (active).
Regarding `COc1cc([C@H]2c3[nH]c4ccccc4c3C[C@H]3C(=O)N4[C@@H](c5cc(OC)c(OC)c(OC)c5)c5[nH]c6ccccc6c5C[C@H]4C(=O)N23)cc(OC)c1OC`, the CC50 in [5] is 19.1 µM (active). The EC50 in the assay with BJ [6] is 3.48 µM (active); with BJ [7], > 150 µM (inconclusive); in the assay on BJ [8], 14.3 µM (inconclusive); in assay [9], 5.02 µM (active); with BJ [10], > 133 µM (inactive).
Regarding `CCOc1ccc(NC2=c3c(Br)c(C)ccc3=NC2=O)cc1`, at Beta-galactosidase, the EC50 is > 40 µM (inactive). In addition, the IC50 in [11] is 7.77 µM (active).
In the case of `C=CCN1C(=O)c2ccc(C(=O)N3CCC(C(N)=O)CC3)cc2C1=O`, the AC50 in the assay on Escherichia coli is 57.7 µM (active).
For the compound `Cc1ccc(C2=NN(C(=O)CCl)C(c3ccco3)C2)o1` (configuration not stated), the EC50 in the assay on BJ [6] was 3.33 µM (inconclusive); with BJ [8] it was 11.1 µM (inconclusive); in [9] it was 5.27 µM (active); with BJ [10] it was 3.42 µM (active); at Protein RecA it was 5.58 µM (active). Further, in assay [12], the AC50 was 30.3 µM (active).
Turning to `CC12CCC3C(CCC4(O)CC(O)CCC34C=NO)C1(O)CCC2C1=COC(=O)C1` (configuration not stated), the IC50 with Vero [13] is > 25 µM (active). Also, the CC50 in the assay on Vero [14] is 0.62 µM (active). Moreover, the AC50 at Paired box protein Pax-8 is 1.12 µM (active).
Take `CC1CCCN(C(=O)c2nn(C)c3c2CSc2ccccc2-3)C1` (configuration not stated): the half-maximal activity concentration (AC50) in the assay with Escherichia coli was 48.3 µM (active).
Same read-out and setting: for `Cc1ccc(OCCOCCNC(C)(C)C)c([N+](=O)[O-])c1` the value was 46.9 µM (active).
In the case of `Cc1ccc(C(=O)COC(=O)CNC(=O)C(c2ccccc2)c2ccccc2)cc1[N+](=O)[O-]`, the EC50 at Beta-galactosidase was > 40 µM (inactive). The IC50 in [11] is recorded as 29.5 µM (not active). For the same compound, the half-maximal activity concentration (AC50) on Cytochrome P450 3A4 is 15.8 µM (inconclusive).
Consider `CCCOc1ccccc1/C=C1\SC(N2CCCCC2)=NC1=O`, for which the CC50 in assay [5] was 44.7 µM (active); in the assay with Vero [14], > 25 µM (active). In addition, in the assay on Vero [13], the IC50 is 5.33 µM (active).
As to `CCCCc1c(C)c(C#N)c2nc3ccccc3n2c1Cl`, the 50% effective concentration (EC50) in the assay on BJ [6] is 2.22 µM (active); in the assay with BJ [7] it was 2.85 µM (active); in assay [15] it was 1.88 µM (active); in assay [16] it was 1.52 µM (active); in the assay with BJ [8], 1.75 µM (inconclusive); in [9], 2.76 µM (active). Also, in the assay with BJ [10], the EC50 is 0.57 µM (active).
Consider `O=C1Nc2ccccc2/C1=N/c1ccc(Br)cc1`, for which, at Beta-galactosidase, the EC50 was > 40 µM (inactive). In addition, the IC50 in assay [11] was 7.4 µM (active).
